Experiment: Stability of bis azainositol Zirconium complexes under heat sterilization (HPLC with ICP-MS detection, ICP-OES)
Format: physicochemical
Conditions: absolute stability; aqueous, buffered solution at pH 7.4, 5 mmol/L of the compound, heated to 121 °C for 45 minutes in a steam autoclave
Experimental: Stability of bis azainositol Zirconium complexes
The stability of bis azainositol Zirconium complexes was determined in aqueous, buffered solution at pH 7.4. The solution containing 5 mmol/L of the compound in a tightly sealed vessel was heated to 121 °C for 45 minutes in a steam autoclave. The Zirconium concentration of the solution was determined by ICP-OES before and after heat treatment. The integrity of the compound was determined by HPLC analysis before and after heat treatment. Absolute stability was calculated as the ratio of the peak area of the compound after and before the heat treatment multiplied with the ratio of the metal concentration of the solution after and before heat treatment.
• Column 1: Reversed phase C18. • Column 2: ZIC®-HILIC. • Solvent A1: 0,5 mM tetrabutylammonium phosphate pH 6 • Solvent A2: 0.1 % formic acid in water • Solvent B1: methanol • Solvent B2: acetonitrile
The use of columns, solvents, flow rate and gradients is detailed in the table below. Detector: element specific detection by ICP-MS, running at m/z 90, the most abundant isotope of Zirconium.

Substance | Stability [%]
Bis[µ3-3,3',3"-({[1R-(1α,2α,3α,4α,5α,6α)]-2,4,6-trihydroxylato-1κ^2O^2O^6, 2κ^2O^2O^4,3κ^2O^4O^6-cyclohexane-1,3,5-triyl}tris{methylimino-1κN^1,2κN^3,3κN^5})tripropanoato-1κO,2κO',3κO"]trizirconium(IV) [Example 3] | 100
Hydroxido-3κO-[µ3-3,3',3"-({[1R-(1α,2α,3α,4α,5α,6α)]-2,4,6-trihydroxylato-1κ^2O^2O^6, 2κO^2O^4,3κ^2O^4O^6-cyclohexane-1,3,5-triyl]tris{methylimino-1κN^1,2κN^3,3κN^5}) tri-propanoato-1κO,2κO',3κO"][µ3-3,3'-({[1R-(1α,2α,3α,4α,5α,6α)]-2,4,6-trihydroxylato-1κ^2O^2O^6,2κ^2O^2O^4,3κ^2O^4O^6-5-[methylamino-3κN^5]cyclohexane-1,3-diyl}bis{methyl-imino-1κN^1,2κN^3})dipropanonato-1κO,2κO']trizirconium(IV) [Example 4] | 100
